# Key:
# [1] = Ratio of drug uptake in tumor to blood of mouse S180 cells xenografted Kunming mouse at 10 to 20 uCi, iv after 120 mins by gamma counting; format: ADME, organism-based, CCRF S-180; conditions: tumour, 2 h
# [2] = Ratio of drug uptake in tumor to muscle of mouse S180 cells xenografted Kunming mouse at 10 to 20 uCi, iv after 120 mins by gamma counting; format: ADME, organism-based, CCRF S-180; conditions: in vivo, 2 h
# [3] = system: Heart; experiment: Biodistribution in mouse S180 cells xenografted Kunming mouse heart at 10 to 20 uCi, iv after 5 mins by gamma counting; format: ADME, organism-based, CCRF S-180; conditions: in vivo
# [4] = system: Pancreas; experiment: Biodistribution in mouse S180 cells xenografted Kunming mouse pancreas at 10 to 20 uCi, iv after 5 mins by gamma counting; format: ADME, organism-based, CCRF S-180; conditions: in vivo
# [5] = system: Lung; experiment: Biodistribution in mouse S180 cells xenografted Kunming mouse lung at 10 to 20 uCi, iv after 5 mins by gamma counting; format: ADME, organism-based, CCRF S-180; conditions: in vivo
# [6] = system: Kidney; experiment: Biodistribution in mouse S180 cells xenografted Kunming mouse kidney at 10 to 20 uCi, iv after 5 mins by gamma counting; format: ADME, organism-based, CCRF S-180; conditions: in vivo
# [7] = system: Brain; experiment: Biodistribution in mouse S180 cells xenografted Kunming mouse brain at 10 to 20 uCi, iv after 5 mins by gamma counting; format: ADME, organism-based, CCRF S-180; conditions: in vivo
# [8] = Ratio of drug uptake in tumor to muscle of mouse S180 cells xenografted Kunming mouse at 10 to 20 uCi, iv after 5 mins by gamma counting; format: ADME, organism-based, CCRF S-180; conditions: in vivo
# [9] = Ratio of drug uptake in tumor to brain of mouse S180 cells xenografted Kunming mouse at 10 to 20 uCi, iv after 5 mins by gamma counting; format: ADME, organism-based, CCRF S-180; conditions: in vivo
# [10] = system: Heart; experiment: Biodistribution in mouse S180 cells xenografted Kunming mouse heart at 10 to 20 uCi, iv after 15 mins by gamma counting; format: ADME, organism-based, CCRF S-180; conditions: in vivo, 0.25 h
# [11] = system: Pancreas; experiment: Biodistribution in mouse S180 cells xenografted Kunming mouse pancreas at 10 to 20 uCi, iv after 15 mins by gamma counting; format: ADME, organism-based, CCRF S-180; conditions: in vivo, 0.25 h
# [12] = system: Lung; experiment: Biodistribution in mouse S180 cells xenografted Kunming mouse lung at 10 to 20 uCi, iv after 15 mins by gamma counting; format: ADME, organism-based, CCRF S-180; conditions: in vivo, 0.25 h
# [13] = system: Kidney; experiment: Biodistribution in mouse S180 cells xenografted Kunming mouse kidney at 10 to 20 uCi, iv after 15 mins by gamma counting; format: ADME, organism-based, CCRF S-180; conditions: in vivo, 0.25 h
# [14] = system: Brain; experiment: Biodistribution in mouse S180 cells xenografted Kunming mouse brain at 10 to 20 uCi, iv after 15 mins by gamma counting; format: ADME, organism-based, CCRF S-180; conditions: in vivo, 0.25 h
# [15] = Biodistribution in mouse S180 cells xenografted Kunming mouse tumor at 10 to 20 uCi, iv after 15 mins by gamma counting; format: ADME, organism-based, Neoplasm, CCRF S-180; conditions: in vivo, 0.25 h
# [16] = Ratio of drug uptake in tumor to blood of mouse S180 cells xenografted Kunming mouse at 10 to 20 uCi, iv after 15 mins by gamma counting; format: ADME, organism-based, CCRF S-180; conditions: tumour, 0.25 h
# [17] = Ratio of drug uptake in tumor to muscle of mouse S180 cells xenografted Kunming mouse at 10 to 20 uCi, iv after 15 mins by gamma counting; format: ADME, organism-based, CCRF S-180; conditions: in vivo, 0.25 h
# [18] = Ratio of drug uptake in tumor to brain of mouse S180 cells xenografted Kunming mouse at 10 to 20 uCi, iv after 15 mins by gamma counting; format: ADME, organism-based, CCRF S-180; conditions: in vivo, 0.25 h
# [19] = system: Liver; experiment: Biodistribution in mouse S180 cells xenografted Kunming mouse liver at 10 to 20 uCi, iv after 30 mins by gamma counting; format: ADME, organism-based, CCRF S-180; conditions: in vivo, 0.5 h
# [20] = system: Pancreas; experiment: Biodistribution in mouse S180 cells xenografted Kunming mouse pancreas at 10 to 20 uCi, iv after 30 mins by gamma counting; format: ADME, organism-based, CCRF S-180; conditions: in vivo, 0.5 h
# [21] = system: Kidney; experiment: Biodistribution in mouse S180 cells xenografted Kunming mouse kidney at 10 to 20 uCi, iv after 30 mins by gamma counting; format: ADME, organism-based, CCRF S-180; conditions: in vivo, 0.5 h
# [22] = system: Muscle tissue; experiment: Biodistribution in mouse S180 cells xenografted Kunming mouse muscle at 10 to 20 uCi, iv after 30 mins by gamma counting; format: ADME, organism-based, CCRF S-180; conditions: in vivo, 0.5 h
# [23] = system: Blood; experiment: Biodistribution in mouse S180 cells xenografted Kunming mouse blood at 10 to 20 uCi, iv after 30 mins by gamma counting; format: ADME, organism-based, CCRF S-180; conditions: in vivo, 0.5 h
# [24] = system: Brain; experiment: Biodistribution in mouse S180 cells xenografted Kunming mouse brain at 10 to 20 uCi, iv after 30 mins by gamma counting; format: ADME, organism-based, CCRF S-180; conditions: in vivo, 0.5 h
# [25] = Biodistribution in mouse S180 cells xenografted Kunming mouse tumor at 10 to 20 uCi, iv after 30 mins by gamma counting; format: ADME, organism-based, Neoplasm, CCRF S-180; conditions: in vivo, 0.5 h
# [26] = Ratio of drug uptake in tumor to muscle of mouse S180 cells xenografted Kunming mouse at 10 to 20 uCi, iv after 30 mins by gamma counting; format: ADME, organism-based, CCRF S-180; conditions: in vivo, 0.5 h
# [27] = system: Heart; experiment: Biodistribution in mouse S180 cells xenografted Kunming mouse heart at 10 to 20 uCi, iv after 60 mins by gamma counting; format: ADME, organism-based, CCRF S-180; conditions: in vivo, 1 h
# [28] = system: Liver; experiment: Biodistribution in mouse S180 cells xenografted Kunming mouse liver at 10 to 20 uCi, iv after 60 mins by gamma counting; format: ADME, organism-based, CCRF S-180; conditions: in vivo, 1 h
# [29] = system: Pancreas; experiment: Biodistribution in mouse S180 cells xenografted Kunming mouse pancreas at 10 to 20 uCi, iv after 60 mins by gamma counting; format: ADME, organism-based, CCRF S-180; conditions: in vivo, 1 h
# [30] = system: Lung; experiment: Biodistribution in mouse S180 cells xenografted Kunming mouse lung at 10 to 20 uCi, iv after 60 mins by gamma counting; format: ADME, organism-based, CCRF S-180; conditions: in vivo, 1 h
# [31] = system: Kidney; experiment: Biodistribution in mouse S180 cells xenografted Kunming mouse kidney at 10 to 20 uCi, iv after 60 mins by gamma counting; format: ADME, organism-based, CCRF S-180; conditions: in vivo, 1 h
# [32] = system: Muscle tissue; experiment: Biodistribution in mouse S180 cells xenografted Kunming mouse muscle at 10 to 20 uCi, iv after 60 mins by gamma counting; format: ADME, organism-based, CCRF S-180; conditions: in vivo, 1 h
# [33] = system: Blood; experiment: Biodistribution in mouse S180 cells xenografted Kunming mouse blood at 10 to 20 uCi, iv after 60 mins by gamma counting; format: ADME, organism-based, CCRF S-180; conditions: in vivo, 1 h
# [34] = Biodistribution in mouse S180 cells xenografted Kunming mouse tumor at 10 to 20 uCi, iv after 60 mins by gamma counting; format: ADME, organism-based, Neoplasm, CCRF S-180; conditions: in vivo, 1 h
# [35] = Ratio of drug uptake in tumor to blood of mouse S180 cells xenografted Kunming mouse at 10 to 20 uCi, iv after 60 mins by gamma counting; format: ADME, organism-based, CCRF S-180; conditions: tumour, 1 h
# [36] = Ratio of drug uptake in tumor to muscle of mouse S180 cells xenografted Kunming mouse at 10 to 20 uCi, iv after 60 mins by gamma counting; format: ADME, organism-based, CCRF S-180; conditions: in vivo, 1 h
# [37] = Ratio of drug uptake in tumor to brain of mouse S180 cells xenografted Kunming mouse at 10 to 20 uCi, iv after 60 mins by gamma counting; format: ADME, organism-based, CCRF S-180; conditions: in vivo, 1 h
# [38] = system: Heart; experiment: Biodistribution in mouse S180 cells xenografted Kunming mouse heart at 10 to 20 uCi, iv after 120 mins by gamma counting; format: ADME, organism-based, CCRF S-180; conditions: in vivo, 2 h
# [39] = system: Liver; experiment: Biodistribution in mouse S180 cells xenografted Kunming mouse liver at 10 to 20 uCi, iv after 120 mins by gamma counting; format: ADME, organism-based, CCRF S-180; conditions: in vivo, 2 h
# [40] = system: Lung; experiment: Biodistribution in mouse S180 cells xenografted Kunming mouse lung at 10 to 20 uCi, iv after 120 mins by gamma counting; format: ADME, organism-based, CCRF S-180; conditions: in vivo, 2 h
# [41] = system: Kidney; experiment: Biodistribution in mouse S180 cells xenografted Kunming mouse kidney at 10 to 20 uCi, iv after 120 mins by gamma counting; format: ADME, organism-based, CCRF S-180; conditions: in vivo, 2 h
# [42] = system: Muscle tissue; experiment: Biodistribution in mouse S180 cells xenografted Kunming mouse muscle at 10 to 20 uCi, iv after 120 mins by gamma counting; format: ADME, organism-based, CCRF S-180; conditions: in vivo, 2 h
# [43] = system: Brain; experiment: Biodistribution in mouse S180 cells xenografted Kunming mouse brain at 10 to 20 uCi, iv after 120 mins by gamma counting; format: ADME, organism-based, CCRF S-180; conditions: in vivo, 2 h
smiles,measurement,setting,value
OC[C@H]1O[C@@H](O)[C@H]([18F])[C@@H](O)[C@@H]1O [FLUDEOXYGLUCOSE-F18],Ratio,[1],15.85
same,Ratio,[2],2.2
same,Drug uptake,[3],2.6 % ID/g
same,Drug uptake,[4],1.31 % ID/g
same,Drug uptake,[5],1.52 % ID/g
same,Drug uptake,[6],2.16 % ID/g
same,Drug uptake,[7],2.4 % ID/g
same,Ratio,[8],0.81
same,Ratio,[9],0.53
same,Drug uptake,[10],2.5 % ID/g
same,Drug uptake,[11],0.95 % ID/g
same,Drug uptake,[12],0.77 % ID/g
same,Drug uptake,[13],1.04 % ID/g
same,Drug uptake,[14],2.63 % ID/g
same,Drug uptake,[15],1.56 % ID/g
same,Ratio,[16],3.42
same,Ratio,[17],1.37
same,Ratio,[18],0.59
same,Drug uptake,[19],0.23 % ID/g
same,Drug uptake,[20],0.9 % ID/g
same,Drug uptake,[21],0.61 % ID/g
same,Drug uptake,[22],1.07 % ID/g
same,Drug uptake,[23],0.16 % ID/g
same,Drug uptake,[24],3.07 % ID/g
same,Drug uptake,[25],1.86 % ID/g
same,Ratio,[26],1.75
same,Drug uptake,[27],3.24 % ID/g
same,Drug uptake,[28],0.22 % ID/g
same,Drug uptake,[29],0.83 % ID/g
same,Drug uptake,[30],0.57 % ID/g
same,Drug uptake,[31],0.54 % ID/g
same,Drug uptake,[32],0.97 % ID/g
same,Drug uptake,[33],0.11 % ID/g
same,Drug uptake,[34],2.16 % ID/g
same,Ratio,[35],19.47
same,Ratio,[36],2.23
same,Ratio,[37],1.02
same,Drug uptake,[38],6.27 % ID/g
same,Drug uptake,[39],0.2 % ID/g
same,Drug uptake,[40],0.52 % ID/g
same,Drug uptake,[41],0.25 % ID/g
same,Drug uptake,[42],0.78 % ID/g
same,Drug uptake,[43],1.28 % ID/g
CCCc1nc2c(C)cc(C(=O)O)cc2n1CC[18F],Ratio,[1],1.63
same,Ratio,[2],2.58
same,Drug uptake,[3],4.48 % ID/g
same,Drug uptake,[4],2.33 % ID/g
same,Drug uptake,[5],8.33 % ID/g
same,Drug uptake,[6],35.9 % ID/g
same,Drug uptake,[7],1.03 % ID/g
same,Ratio,[8],1.28
same,Ratio,[9],2.21
same,Drug uptake,[10],2.66 % ID/g
same,Drug uptake,[11],1 % ID/g
same,Drug uptake,[12],5.44 % ID/g
same,Drug uptake,[13],13.79 % ID/g
same,Drug uptake,[14],0.44 % ID/g
same,Drug uptake,[15],1.41 % ID/g
same,Ratio,[16],0.63
same,Ratio,[17],1.16
same,Ratio,[18],3.2
same,Drug uptake,[19],2.53 % ID/g
same,Drug uptake,[20],1.03 % ID/g
same,Drug uptake,[21],7.4 % ID/g
same,Drug uptake,[22],1.17 % ID/g
same,Drug uptake,[23],1.36 % ID/g
same,Drug uptake,[24],0.31 % ID/g
same,Drug uptake,[25],1.49 % ID/g
same,Ratio,[26],1.27
same,Drug uptake,[27],1.08 % ID/g
same,Drug uptake,[28],1.55 % ID/g
same,Drug uptake,[29],0.67 % ID/g
same,Drug uptake,[30],2.35 % ID/g
same,Drug uptake,[31],4.2 % ID/g
same,Drug uptake,[32],0.62 % ID/g
same,Drug uptake,[33],0.95 % ID/g
same,Drug uptake,[34],1.36 % ID/g
same,Ratio,[35],1.43
same,Ratio,[36],2.19
same,Ratio,[37],7.15
same,Drug uptake,[38],0.26 % ID/g
same,Drug uptake,[39],0.38 % ID/g
same,Drug uptake,[40],0.66 % ID/g
same,Drug uptake,[41],1.1 % ID/g
same,Drug uptake,[42],0.19 % ID/g
same,Drug uptake,[43],0.05 % ID/g
